Patent US20050112573A1, “Method of detecting toxic substance” (priority 2001, published 2005)

Tested on: yeast genes (level of expressed mRNA)
Test: DNA chip analysis of expressed mRNA of yeast genes after 2 h culture with a toxic chemical substance
Format: cell-based, Saccharomyces cerevisiae S288C
Description: Yeast (Saccharomyces cerevtisiae S288C (α SUC2mal mel gap2 CUP1)) were cultured at 25° C. on YPD medium (yeast extract 1%, polypepton 2%, glucose 2%). One of toxic chemical substances was added to the cell at logarithmic growth phase, and the cell was further cultured for two hours. Cell was cultured without any chemical substance in the same condition, and was used as control. Concentrations of the chemical substances were defined to inhibit the growth of the yeast but not lead to death.
After the completion of cultivation, the culture was centrifuged to collect the cells. To the cells, sodium acetate buffer (50 mM sodium acetate, 10 mM EDTA, 1% SDS) was added, and the mixture was shaken at 65° C. for five minutes, followed by returning to room temperature, and obtaining the supernatant, which procedure was repeated two times. To the supernatant, ½ amount of a solution of phenol/chloroform was added, and the mixture was centrifuged to give a supernatant, which was added with an equal amount of chloroform, and the mixture was centrifuged to give a supernatant. To the supernatant, an equal amount of isopropanol containing 0.3 M sodium acetate was added, and the mixture was allowed to stand at room temperature for 30 minutes, after which the mixture was centrifuged to give a sediment of the whole RNAs. Seventy % ethanol was added to the sediment, and the mixture was again centrifuged to give a sediment, which was then dried and dissolved in water. mRNA was isolated from the whole RNAs as followings. In view of the fact that a poly A chain is attached to the 3′ terminus of mRNA, a polynucleotide having a poly T structure which was immobilized on the surface of latex beads was used to trap the mRNA, and then the mRNA was washed and eluted with spine column (Oligotex-dT30<Super>mRNA Purification Kit, Takara). Reverse transcription of the mRNA was conducted with a reverse transcriptase (Super Script II Reverse Transcriptase; catalogue No. 18064-014, GibcoBRL) using fluorescence-labeled nucleotides to give cDNAs that were introduced with Cy3-dUTP or Cy5-dUTP during the reverse transcription.
The labeled cDNAs were dissolved in TE buffer (10 mM Tris-HCl/1 mM EDTA, pH8.0), and the solution was dropped on the DNA chip containing the whole genes of yeast (DNA Chip Research Inc. Japan) so that the cDNAs were hybridized on the DNA chip at 65° C. for over 12 hours. The fluoresces intensity of the DNA chip was read with a scanner, and the ratio relative to the fluorescence intensity resulting from the absence of chemical substance was estimated as the following, which is shown in Tables 1 to 9: [formula]
In the Tables, “Intensity” indicated in the rightmost column is a value of the level of expressed mRNA of each gene in control cells as divided by the average level of the expressions of the whole genes.

Na2As [(1)]
The level of expressed mRNA in the presence of chemical substance/ (yeast gene YAL053W, ratio to control without chemical): 0.9 | The level of expressed mRNA in the presence of chemical substance/The level of expressed mRNA in the absence of chemical substance (yeast gene YAR010C): 0.8 | The level of expressed mRNA in the presence of chemical substance/The level of expressed mRNA in the absence of chemical substance (yeast gene YBL005W-A): 1.0 | The level of expressed mRNA in the presence of chemical substance/The level of expressed mRNA in the absence of chemical substance (yeast gene YBL041W): 1.2 | The level of expressed mRNA in the presence of chemical substance/The level of expressed mRNA in the absence of chemical substance (yeast gene YBL043W): 1.2 | The level of expressed mRNA in the presence of chemical substance/ (yeast gene YBL048W, ratio to control without chemical substance, 2 h culture): 2.0 | The level of expressed mRNA in the presence of chemical substance/The level of expressed mRNA in the absence of chemical substance (yeast gene YBL078C): 2.3 | The level of expressed mRNA in the presence of chemical substance/ (yeast gene YBL107C, ratio to control without chemical substance, 2 h culture): 1.4 | The level of expressed mRNA in the presence of chemical substance/in the absence of chemical substance (yeast gene YBR036C): 0.8 | The level of expressed mRNA in the presence of chemical substance/The level of expressed mRNA in the absence of chemical substance (yeast gene YBR214W): 0.9 | The level of expressed mRNA in the presence of chemical substance/in the absence of chemical substance (yeast gene YBR298C): 1.1 | The level of expressed mRNA in the presence of chemical substance/The level of expressed mRNA in the absence of chemical substance (yeast gene YCL020W): 1.1 | The level of expressed mRNA in the presence of chemical substance/The level of expressed mRNA in the absence of chemical substance (yeast gene YCL027W): 0.7 | The level of expressed mRNA in the presence of chemical substance/The level of expressed mRNA in the absence of chemical substance (yeast gene YCR004C): 1.7 | The level of expressed mRNA in the presence of chemical substance/The level of expressed mRNA in the absence of chemical substance (yeast gene YCR071C): 1.1 | The level of expressed mRNA in the presence of chemical substance/The level of expressed mRNA in the absence of chemical substance (yeast gene YCR088W): 0.9 | The level of expressed mRNA in the presence of chemical substance/The level of expressed mRNA in the absence of chemical substance (yeast gene YDL008W): 1.1 | The level of expressed mRNA in the presence of chemical substance/ (yeast gene YDL072C, ratio to control without chemical): 1.3 | The level of expressed mRNA in the presence of chemical substance/in the absence of chemical substance (yeast gene YDL078C): 0.7 | The level of expressed mRNA in the presence of chemical substance/ (yeast gene YDL204W, ratio to control without chemical): 1.4 | The level of expressed mRNA in the presence of chemical substance/in the absence of chemical substance (yeast gene YDL215C): 1.0 | The level of expressed mRNA in the presence of chemical substance/ (yeast gene YDL222C, ratio to control without chemical): 0.9 | The level of expressed mRNA in the presence of chemical substance/The level of expressed mRNA in the absence of chemical substance (yeast gene YDL238C): 0.7 | The level of expressed mRNA in the presence of chemical substance/The level of expressed mRNA in the absence of chemical substance (yeast gene YDR055W): 1.7 | The level of expressed mRNA in the presence of chemical substance/The level of expressed mRNA in the absence of chemical substance (yeast gene YDR084C): 0.9 | The level of expressed mRNA in the presence of chemical substance/The level of expressed mRNA in the absence of chemical substance (yeast gene YDR085C): 1.9 | The level of expressed mRNA in the presence of chemical substance/The level of expressed mRNA in the absence of chemical substance (yeast gene YDR104C): 0.8 | The level of expressed mRNA in the presence of chemical substance/The level of expressed mRNA in the absence of chemical substance (yeast gene YDR115W): 1.3 | The level of expressed mRNA in the presence of chemical substance/The level of expressed mRNA in the absence of chemical substance (yeast gene YDR259C): 1.4 | The level of expressed mRNA in the presence of chemical substance/in the absence of chemical substance (yeast gene YDR297W): 1.5 | The level of expressed mRNA in the presence of chemical substance/The level of expressed mRNA in the absence of chemical substance (yeast gene YDR315C): 1.0 | The level of expressed mRNA in the presence of chemical substance/ (yeast gene YDR330W, ratio to control without chemical substance, 2 h culture): 0.8 | The level of expressed mRNA in the presence of chemical substance/The level of expressed mRNA in the absence of chemical substance (yeast gene YDR358W): 0.7 | The level of expressed mRNA in the presence of chemical substance/in the absence of chemical substance (yeast gene YDR387C): 0.8 | The level of expressed mRNA in the presence of chemical substance/The level of expressed mRNA in the absence of chemical substance (yeast gene YDR388W): 0.7 | The level of expressed mRNA in the presence of chemical substance/ (yeast gene YDR411C, ratio to control without chemical substance, 2 h culture): 0.9 | The level of expressed mRNA in the presence of chemical substance/The level of expressed mRNA in the absence of chemical substance (yeast gene YDR432W): 0.5 | The level of expressed mRNA in the presence of chemical substance/The level of expressed mRNA in the absence of chemical substance (yeast gene YDR481C): 0.7 | The level of expressed mRNA in the presence of chemical substance/The level of expressed mRNA in the absence of chemical substance (yeast gene YDR510W): 1.0 | The level of expressed mRNA in the presence of chemical substance/ (yeast gene YDR511W, ratio to control without chemical substance, 2 h culture): 1.3 | The level of expressed mRNA in the presence of chemical substance/ (yeast gene YDR545W, ratio to control without chemical substance, 2 h culture): 0.6 | The level of expressed mRNA in the presence of chemical substance/ (yeast gene YEL001C, ratio to control without chemical): 1.0 | The level of expressed mRNA in the presence of chemical substance/The level of expressed mRNA in the absence of chemical substance (yeast gene YEL042W): 0.6 | The level of expressed mRNA in the presence of chemical substance/The level of expressed mRNA in the absence of chemical substance (yeast gene YEL066W): 2.0 | The level of expressed mRNA in the presence of chemical substance/ (yeast gene YER004W, ratio to control without chemical substance, 2 h culture): 1.0 | The level of expressed mRNA in the presence of chemical substance/ (yeast gene YER035W, ratio to control without chemical substance, 2 h culture): 1.4 | The level of expressed mRNA in the presence of chemical substance/The level of expressed mRNA in the absence of chemical substance (yeast gene YER039C): 1.0 | The level of expressed mRNA in the presence of chemical substance/ (yeast gene YER079W, ratio to control without chemical substance, 2 h culture): 1.1 | The level of expressed mRNA in the presence of chemical substance/ (yeast gene YER106W, ratio to control without chemical): 1.3 | The level of expressed mRNA in the presence of chemical substance/The level of expressed mRNA in the absence of chemical substance (yeast gene YER107C): 0.9 | The level of expressed mRNA in the presence of chemical substance/The level of expressed mRNA in the absence of chemical substance (yeast gene YER130C): 0.9 | The level of expressed mRNA in the presence of chemical substance/ (yeast gene YER158C, ratio to control without chemical substance, 2 h culture): 1.2 | The level of expressed mRNA in the presence of chemical substance/ (yeast gene YER163C, ratio to control without chemical substance, 2 h culture): 1.1 | The level of expressed mRNA in the presence of chemical substance/ (yeast gene YER175C, ratio to control without chemical substance, 2 h culture): 0.9 | The level of expressed mRNA in the presence of chemical substance/ (yeast gene YFL006W, ratio to control without chemical substance, 2 h culture): 0.8
